From PMC12871931, “The importin‐alpha superfamily engages in ethylene signaling by shuttling [sequence] INSENSITIVE 2 from the endoplasmic reticulum to the nucleus” (The Febs Journal, 2025)

Tested on: EIN2C^479–1294ΔNLS
Experiment: In planta FLIM‐FRET, EIN2C^479–1294ΔNLS‐CER donor, IMPα3‐YFP acceptor
Assay type: cell-based, Arabidopsis thaliana
Details: co‐expression of IMPα3‐YFP acceptor, negative control, t‐test
Text: To further investigate the interaction between members of the IMPα superfamily and EIN2 in planta, we used in vivo fluorescence lifetime microscopy and Förster's resonance energy transfer (FLIM‐FRET). Accordingly, the C‐terminal part of EIN2 (EIN2C^479–1294) was fused to the fluorescent protein Cerulean (CER), serving as a donor, and the IMPα isoforms (IMPα1‐7) were fused to YELLOW FL[…] (YFP), serving as acceptors.
FRET efficiencies ranged between 2.8–4.6%. […] Given that nuclear import of the EIN2C^479–1294ΔNLS variant is abolished, we then tested whether this is due to an impaired interaction with IMPα proteins. […]
A modified version of a previously described procedure was used for the transient transformation of N. benthamiana. […] For co‐infiltration, bacteria solutions were mixed in equal quantities, and Agrobacterium strain GV3101:p19 expressing the p19 silencing inhibitor was added to each mix. […]
Fluorescence lifetime imaging was performed using a protocol described previously. Fluorescence lifetime was measured at a Zeiss LSM 780 confocal microscope (40× water immersion objective, Zeiss C‐PlanApo, NA 1.2). […] Photons were detected in both donor and acceptor channels simultaneously with Tau‐SPADs (PicoQuant, Berlin, Germany). […] Fluorescence lifetime images were acquired in the cytosol, ER, or nucleus in donor‐only samples and samples with IMPα1‐4 and IMPα7. […]

Substance: IMPα3‐YFP: A. thaliana IMPα3 fused to YFP, FRET acceptor
- fluorescence lifetime of EIN2^479–1294ΔNLS‐CER: did not result in a reduction of the fluorescence lifetime
